# Assay results reported in PubChem BioAssay (NCI).
# Several values for one entry are separate records, joined by “and”; a condition that tells them apart may be missing. Equal values may be shown once.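 Growth conditions: 96-well plates. Treatment: test compound, 48 hours, 5 concentrations. Analysis: linear interpolation between bracketing concentrations; unreached endpoints set to highest concentration. Abbreviation: GI50, concentration required for 50% inhibition of growth. TGI: total growth inhibition.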 Activity calls are given as the source filed them. Rule as the data show it: active = GI50 below about 0.43 µM; inactive = the rest.
# Tests used:
# Test in all cases: NCI tumour cell line growth inhibition, 48 h
# KM20L2 colon = test system: KM20L2 colon
# DMS 273 small cell lung = test system: DMS 273 small cell lung
# P388 leukemia = test system: P388 leukemia
# P388/ADR leukemia = test system: P388/ADR leukemia
# SN12K1 renal = test system: SN12K1 renal
smiles,measurement,setting,value
Cc1ccc(NC(=O)/C(C#N)=C/c2ccccc2)c(C)c1,TGI,KM20L2 colon,> 100 µM
same,TGI,DMS 273 small cell lung,> 100 µM
CC(=O)Nc1ccc(S(=O)(=O)NN(C)S(=O)(=O)c2ccc(C)cc2)cc1,TGI,KM20L2 colon,> 100 µM
O=C(Cc1ccccc1)C(c1ccccc1)S(=O)(=O)c1ccccc1 (stereo unspecified),TGI,KM20L2 colon,> 100 µM
same,TGI,DMS 273 small cell lung,> 100 µM
C#CCNC(=O)NC(CCCCNC(=O)OCc1ccccc1)C(=O)OCc1ccccc1 (stereo unspecified),TGI,KM20L2 colon,> 100 µM
same,TGI,DMS 273 small cell lung,> 100 µM
CC(=O)OCC(CC[CH2][Sn]([Cl])([Cl])[c]1ccccc1)OC(C)=O (stereo unspecified),GI50,KM20L2 colon,24.8 µM
same,TGI,KM20L2 colon,52 µM
same,GI50,DMS 273 small cell lung,20.6 µM
same,TGI,DMS 273 small cell lung,43.3 µM
N#C/C(=C1\OC(=N)C(c2ccc(Cl)cc2Cl)C1=O)c1ccc(Cl)cc1Cl (stereo unspecified),TGI,KM20L2 colon,> 100 µM
same,TGI,DMS 273 small cell lung,> 100 µM
C=C1C=CC2(Br)OC3CC(C)(Cl)C(Br)CC13C2(C)C (stereo unspecified),TGI,KM20L2 colon,49.7 µM
same,TGI,DMS 273 small cell lung,> 100 µM
O=c1[nH]c2ccccc2n1C1CCN(CCCC(c2ccc(F)cc2)c2ccc(F)cc2)CC1,TGI,KM20L2 colon,5.87 µM
same,TGI,DMS 273 small cell lung,11.9 µM
Cc1nnc(N/N=C(/C(=O)C(C#N)c2ccc(Cl)cc2)C(C#N)c2ccc(Cl)cc2)n1N (stereo unspecified),TGI,KM20L2 colon,41.2 µM
same,TGI,DMS 273 small cell lung,34 µM
CC1CCC2(C)C(CC=C(C=O)C2(O)C=O)C12CO2 (stereo unspecified),TGI,KM20L2 colon,6.09 µM
same,TGI,DMS 273 small cell lung,7.61 µM
COc1c(CC=C(C)C)c(O)c(C(CC(C)C)c2c(O)c(CC=C(C)C)c(O)c(C(C)=O)c2O)c(O)c1C(C)=O (stereo unspecified),TGI,DMS 273 small cell lung,1.33 µM
CC(C)(C)c1cc(C(=O)O)c2c(c1)C(=O)OC2(c1ccccc1)c1ccccc1C(=O)O (stereo unspecified),TGI,KM20L2 colon,> 100 µM
same,TGI,DMS 273 small cell lung,> 100 µM
C[P+]1(c2ccccc2)CCCCC1,TGI,KM20L2 colon,> 100 µM
same,TGI,DMS 273 small cell lung,> 100 µM
O=C(CO)C1CC2C=CC1C2 (stereo unspecified),TGI,DMS 273 small cell lung,> 100 µM
c1ccc(CN2COc3c(ccc4c5c(ccc34)CN(Cc3ccccc3)CO5)C2)cc1,TGI,KM20L2 colon,> 100 µM
O=C(c1c(O)cc(O)cc1O)C1Cc2ccccc21 (stereo unspecified),TGI,KM20L2 colon,> 100 µM
same,TGI,DMS 273 small cell lung,> 100 µM
C/C(=N\NC(=S)N1CCN(c2ccccn2)CC1)c1ncccn1,TGI,P388 leukemia,0.0153 µM
same,TGI,P388/ADR leukemia,0.0154 µM
same,GI50,DMS 273 small cell lung,0.0311 µM
same,TGI,DMS 273 small cell lung,3.71 µM and 15.2 µM
same,TGI,SN12K1 renal,1.61 µM
O=C(CC(=O)c1ccccc1)C(=O)Nc1ccc(Cl)cc1,TGI,KM20L2 colon,> 100 µM
same,TGI,DMS 273 small cell lung,> 100 µM
COc1c(OC(C)C)cc2cc(O)c(C(=O)NC3Cc4ccc(c(Cl)n4)O[C@@H]4C=C5C#C/C(=C\C#CC6OC56C4OC4CC(C)(O)C(O)C(C)O4)C(OC4CC(O)C(N(C)C)C(C)O4)COC3=O)cc2c1OC (stereo partly specified),outcome,KM20L2 colon,inactive
same,GI50,DMS 273 small cell lung,0.279 µg/mL
same,TGI,DMS 273 small cell lung,12.7 µg/mL
CCc1ccccc1NC(=O)CC1NC(=O)CS1 (stereo unspecified),TGI,KM20L2 colon,> 100 µM
same,TGI,DMS 273 small cell lung,> 100 µM
CC(=O)CC(=O)CCC(=O)Nc1cccc(C(F)(F)F)c1,TGI,KM20L2 colon,> 100 µM
same,TGI,DMS 273 small cell lung,> 100 µM
Cn1nc(-c2ccccc2)c(C(=O)/C=C/c2ccc(Cl)cc2)c(N2CCOCC2)c1=O,TGI,KM20L2 colon,13.8 µM
same,TGI,DMS 273 small cell lung,13.8 µM
